Measured values taken from patent publication US20210395239A1 (Hoffmann-La Roche Inc., priority 2018, published 2021).
pIC50: −log10 of the molar value. Blank lines part the entries; values can stand above or below the molecule they belong to.

How the values were obtained:
CYP2D6 = biological target: T1, CYP2D6 (Homo sapiens, UniProt P10635); assay: CYP inhibition assay in human liver microsome, CYP2D6; type: in vitro ADME; conditions: human, human liver microsomes, probe dextromethorphan 5 μM, substrate dextromethorphan 5 μM, second value of 2C9/2D6/3A4
T1 construct: tissue BD-Gentest 452117; host or cells: human liver microsomes
T1 sequence (P10635 whole entry): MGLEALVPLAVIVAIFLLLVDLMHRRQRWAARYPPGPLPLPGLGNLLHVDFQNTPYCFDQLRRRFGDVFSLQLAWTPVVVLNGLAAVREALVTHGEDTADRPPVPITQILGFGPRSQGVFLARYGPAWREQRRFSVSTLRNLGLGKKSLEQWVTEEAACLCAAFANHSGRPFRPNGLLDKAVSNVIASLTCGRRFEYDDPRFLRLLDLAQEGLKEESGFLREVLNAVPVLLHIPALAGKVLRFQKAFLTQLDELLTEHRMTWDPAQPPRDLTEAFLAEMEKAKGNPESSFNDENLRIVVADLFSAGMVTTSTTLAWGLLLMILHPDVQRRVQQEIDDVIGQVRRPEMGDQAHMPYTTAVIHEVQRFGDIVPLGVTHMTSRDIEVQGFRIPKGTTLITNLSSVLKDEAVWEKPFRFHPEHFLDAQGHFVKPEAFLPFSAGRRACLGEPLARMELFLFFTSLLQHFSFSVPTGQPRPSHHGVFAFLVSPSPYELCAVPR
Protocol: This is a high throughput screening assay used for assessment of reversible inhibition of CYP2C9, CYP2D6, and CYP3A4 activity of test compounds in human liver microsome (HLM) in early discovery stage.
10 mM DMSO stock solutions of test compounds were diluted in DMSO to generate 2 mM intermediate stock solution. 250 nL, of intermediate stock solution were transferred in duplicate into 3 separate 384 well microtitre plates (assay-ready plates). A mixture of HLM and each substrate was made up. 45 μL of HLM substrate mix was then transferred to each well of an assay ready plate and mixed. The negative (solvent) and positive controls (standard inhibitor for each CYP) were included in each assay ready plate. The assay ready plate was warmed to 37° C. in an incubator over 10 minutes. 5 μL pre-warmed NADPH regenerating system was added to each incubation well to start the reaction. Final incubation volume was 50 μL. The assay plate then was placed back in the 37° C. incubator. After incubation (10 minutes for CYP2D6) for 5 minutes, incubates were quenched by addition of 50 μL 100% acetonitrile containing internal standards (400 ng/mL 13C6-4′-OH-Diclofenac, 20 ng/mL D3-Dextrorphan and 20 ng/mL D4-1′OH-Midazolam). The supernatants were collected for RapidFire/MS/MS analysis.
RapidFire online solid phase extraction/sample injection system (Agilent) coupled with API4000 triple quadrupole mass spectrometer (AB Sciex) were used for sample analysis. The mobile phase composed of acetonitrile and water supplemented with 0.1% formic acid. A C4 solid phase extraction cartridge is used for sample separation. MS detection is achieved in positive ion MRM mode.
Peak areas for substrate, metabolite and internal standard are determined using the RapidFire integrator software (version 3.6.12009.12296). Peak area ratios (PAR) of metabolite and internal standard (stable-labelled metabolite) are then calculated. The measurement window for each experiment is then defined:
PAR (0% activity)=average PAR for all incubations containing concentrated inhibitor; Par (100% activity)=average PAR for all incubations containing no inhibitor (DMSO controls); % Activity (test inhibitor)=[PAR (test inhibitor)−PAR (0% activity)]/[PAR (100% activity)−PAR (0% activity)]; % Inhibition (test inhibitor)=100-% Activity (test inhibitor).

hERG channel = biological target: T2, hERG channel (Homo sapiens, UniProt Q12809); assay: hERG channel inhibition assay (patch-clamp, CHOhERG cells); type: cell-based; conditions: for IC20: human, CHO cells stably expressing hERG (CHOhERG); for IC20 / pIC50: patch-clamp, CHOhERG cells; for hERG IC20/TLR7 IC50 / hERG IC20/TLR8 IC50 / hERG IC20/TLR9 IC50: safety ratio
T2 construct: expressed in transfected cells; host or cells: CHO (Chinese hamster ovary)
T2 sequence (Q12809 whole entry): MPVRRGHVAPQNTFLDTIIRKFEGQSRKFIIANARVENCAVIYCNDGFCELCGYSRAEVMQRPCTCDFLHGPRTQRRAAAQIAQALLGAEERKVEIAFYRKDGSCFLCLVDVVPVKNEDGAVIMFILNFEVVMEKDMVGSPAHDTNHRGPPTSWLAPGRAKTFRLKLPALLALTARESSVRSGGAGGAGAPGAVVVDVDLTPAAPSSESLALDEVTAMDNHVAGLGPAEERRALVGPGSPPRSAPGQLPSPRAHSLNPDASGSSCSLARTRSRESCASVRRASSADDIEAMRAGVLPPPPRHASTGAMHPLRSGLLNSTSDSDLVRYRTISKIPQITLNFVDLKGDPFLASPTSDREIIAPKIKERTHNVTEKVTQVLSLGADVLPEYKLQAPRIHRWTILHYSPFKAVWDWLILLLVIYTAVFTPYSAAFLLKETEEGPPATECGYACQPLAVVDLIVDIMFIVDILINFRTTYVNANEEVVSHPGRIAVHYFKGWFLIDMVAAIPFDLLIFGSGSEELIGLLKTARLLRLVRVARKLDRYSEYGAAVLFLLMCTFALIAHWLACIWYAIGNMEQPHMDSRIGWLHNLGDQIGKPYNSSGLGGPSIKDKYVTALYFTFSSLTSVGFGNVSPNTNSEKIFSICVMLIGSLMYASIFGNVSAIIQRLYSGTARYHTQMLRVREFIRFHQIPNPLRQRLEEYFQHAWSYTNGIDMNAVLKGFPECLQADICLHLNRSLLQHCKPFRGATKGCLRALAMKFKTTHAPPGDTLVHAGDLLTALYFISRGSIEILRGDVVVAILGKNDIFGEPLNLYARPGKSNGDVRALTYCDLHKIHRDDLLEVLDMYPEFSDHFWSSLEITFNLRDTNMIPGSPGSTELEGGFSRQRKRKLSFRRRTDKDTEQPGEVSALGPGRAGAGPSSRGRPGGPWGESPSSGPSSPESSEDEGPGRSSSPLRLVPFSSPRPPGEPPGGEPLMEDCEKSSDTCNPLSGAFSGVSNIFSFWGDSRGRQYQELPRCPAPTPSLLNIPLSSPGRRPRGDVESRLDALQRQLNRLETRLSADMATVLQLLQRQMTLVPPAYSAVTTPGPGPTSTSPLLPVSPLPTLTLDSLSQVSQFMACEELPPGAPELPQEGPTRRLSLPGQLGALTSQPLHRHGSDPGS
Protocol: hERG Channel Inhibition Assay:
The hERG K^+ channels were cloned in humans and stably expressed in a CHO (Chinese hamster ovary) cell line. CHOhERG cells were used for patch-clamp (voltage-clamp, whole-cell) experiments. Cells were stimulated by a voltage pattern to activate hERG channels and conduct IKhERG currents (rapid delayed outward rectifier potassium current of the hERG channel). After the cells were stabilized for a few minutes, the amplitude and kinetics of IKhERG were recorded at a stimulation frequency of 0.1 Hz, (6 bpm). Thereafter, the test compound was added to the preparation at increasing concentrations. For each concentration, an attempt was made to reach a steady-state effect, usually, this was achieved within 3-10 min at which time the next highest concentration was applied. The amplitude and kinetics of IKhERG are recorded in each concentration of the drug which were compared to the control values (taken as 100%). (references: Redfern W S, Carlsson L, Davis A S, Lynch W G, MacKenzie I, Palethorpe S, Siegl P K, Strang I, Sullivan A T, Wallis R, Camm A J, Hammond T G. 2003; Relationships between preclinical cardiac electrophysiology, clinical QT interval prolongation and torsade de pointes for a broad range of drugs: evidence for a provisional safety margin in drug development. Cardiovasc. Res. 58:32-45, Sanguinetti M C, Tristani-Firouzi M. 2006; hERG potassium channels and cardiac arrhythmia. Nature 440:463-469, Webster R, Leishman D, Walker D. 2002; Towards a drug concentration effect relationship for QT prolongation and torsades de pointes. Curr. Opin. Drug Discov. Devel. 5:116-26).

inhibition at 10 min, 10 µM (CYP2D6): 5%
Compound: C[C@@H]1CN(c2ccc(C#N)c3ncccc23)C[C@H](CN2CCC(c3cccc(N4CCNCC4)c3)C2)O1 (stereo partly drawn) [Example 1, 5-[(2R,6S)-2-methyl-6-[[3-(3-piperazin-1-ylphenyl)pyrrolidin-1-yl]methyl]morpholin-4-yl]quinoline-8-carbonitrile]

inhibition at 10 min, 10 µM (CYP2D6): 20%
Compound: C[C@@H]1CN(c2ccc(C#N)c3ncccc23)C[C@H](CN2CCC(c3cccc(C4CCNCC4)c3)CC2)O1 [Example 2, 5-[(2R,6S)-2-methyl-6-[[4-[3-(4-piperidyl)phenyl]-1-piperidyl]methyl]morpholin-4-yl]quinoline-8-carbonitrile]

inhibition at 10 min, 10 µM (CYP2D6): 13.5%
Compound: C[C@@H]1CN(c2ccc(C#N)c3ncccc23)C[C@H](CN2CC(c3ccc(N4CCNCC4)cc3)C2)O1 [Example 3, 5-[(2R,6S)-2-methyl-6-[[3-(4-piperazin-1-ylphenyl)azetidin-1-yl]methyl]morpholin-4-yl]quinoline-8-carbonitrile]

inhibition at 10 min, 10 µM (CYP2D6): 11%
Compound: C[C@@H]1CN(c2ccc(C#N)c3ncccc23)C[C@H](CN2CC(c3cccc(N4CCNCC4)c3)C2)O1 [Example 4, 5-[(2R,6S)-2-methyl-6-[[3-(3-piperazin-1-ylphenyl)azetidin-1-yl]methyl]morpholin-4-yl]quinoline-8-carbonitrile]

Compound: CO[C@@H]1CN(c2nccc(N3CCN(C[C@H]4CN(c5ccc(C#N)c6nccnc56)C[C@@H](C)O4)CC3)n2)C[C@H]1N [Example 98, 8-[(2S,6R)-2-[[4-[2-[(3R,4R)-3-amino-4-methoxy-pyrrolidin-1-yl]pyrimidin-4-yl]piperazin-1-yl]methyl]-6-methyl-morpholin-4-yl]quinoxaline-5-carbonitrile]
IC20 (hERG channel): > 10 µM | pIC50 (hERG channel): < 4.70 | hERG IC20/TLR7 IC50 (hERG channel): >1666 | hERG IC20/TLR8 IC50 (hERG channel): >10000 | hERG IC20/TLR9 IC50 (hERG channel): >204

Compound: CO[C@H]1CN(c2nccc(N3CCN(C[C@H]4CN(c5ccc(C#N)c6nccnc56)C[C@@H](C)O4)CC3)n2)C[C@@H]1N [Example 99, 8-[(2S,6R)-2-[[4-[2-[(3S,4S)-3-amino-4-methoxy-pyrrolidin-1-yl]pyrimidin-4-yl]piperazin-1-yl]methyl]-6-methyl-morpholin-4-yl]quinoxaline-5-carbonitrile]
IC20 (hERG channel): 9 µM | pIC50 (hERG channel): < 4.70 | hERG IC20/TLR7 IC50 (hERG channel): 818 | hERG IC20/TLR8 IC50 (hERG channel): 9000 | hERG IC20/TLR9 IC50 (hERG channel): 142

inhibition at 10 min, 10 µM (CYP2D6): 3%
Compound: CO[C@H]1CN(c2nc(C)cc(N3CCN(C[C@H]4CN(c5ccc(C#N)c6nccnc56)C[C@@H](C)O4)CC3)n2)C[C@@H]1N [Example 106, 8-[(2S,6R)-2-[[4-[2-[(3S,4S)-3-amino-4-methoxy-pyrrolidin-1-yl]-6-methyl-pyrimidin-4-yl]piperazin-1-yl]methyl]-6-methyl-morpholin-4-yl]quinoxaline-5-carbonitrile]

inhibition at 10 min, 10 µM (CYP2D6): 16%
Compound: C[C@@H]1CN(c2ccc(C#N)c3nccnc23)C[C@H](CN2CCN(c3ccnc(N4C[C@H](N)[C@@H](F)C4)n3)CC2)O1 [Example 107, 8-[(2S,6R)-2-[[4-[2-[(3S,4S)-3-amino-4-fluoro-pyrrolidin-1-yl]pyrimidin-4-yl]piperazin-1-yl]methyl]-6-methyl-morpholin-4-yl]quinoxaline-5-carbonitrile]

inhibition at 10 min, 10 µM (CYP2D6): 13.5%
Compound: C[C@@H]1CN(c2ccc(C#N)c3ncccc23)C[C@H](CN2CCN(c3ccnc(N4C[C@H](N)[C@@H](F)C4)n3)CC2)O1 [Example 110, 5-[(2S,6R)-2-[[4-[2-[(3S,4S)-3-amino-4-fluoro-pyrrolidin-1-yl]pyrimidin-4-yl]piperazin-1-yl]methyl]-6-methyl-morpholin-4-yl]quinoline-8-carbonitrile]

inhibition at 10 min, 10 µM (CYP2D6): -2%
Compound: Cc1cc(N2CCN(C[C@H]3CN(c4ccc(C#N)c5nccnc45)C[C@@H](C)O3)CC2)nc(N2CC(N)C2)n1 [Example 112, 8-[(2S,6R)-2-[[4-[2-(3-aminoazetidin-1-yl)-6-methyl-pyrimidin-4-yl]piperazin-1-yl]methyl]-6-methyl-morpholin-4-yl]quinoxaline-5-carbonitrile]

inhibition at 10 min, 10 µM (CYP2D6): 10%
Compound: Cc1ccc(N2C[C@H](CN3CCN(c4nccc(N5CCNCC5)n4)CC3)O[C@H](C)C2)c2nccnc12 [Example 116, (2R,6S)-2-methyl-4-(8-methylquinoxalin-5-yl)-6-[[4-(4-piperazin-1-ylpyrimidin-2-yl)piperazin-1-yl]methyl]morpholine]

inhibition at 10 min, 10 µM (CYP2D6): 4.5%
Compound: Cc1ccc(N2C[C@H](CN3CCN(c4ccnc(N5CCNCC5)n4)CC3)O[C@H](C)C2)c2nccnc12 [Example 117, (2R,6S)-2-methyl-4-(8-methylquinoxalin-5-yl)-6-[[4-(2-piperazin-1-ylpyrimidin-4-yl)piperazin-1-yl]methyl]morpholine]

Compound: C[C@@H]1CN(c2ccc(C#N)c3nccnc23)C[C@H](CN2CCN(c3nccc(N4CC(N)C4)n3)CC2)O1 [Example 118, 8-[(2S,6R)-2-[[4-[4-(3-aminoazetidin-1-yl)pyrimidin-2-yl]piperazin-1-yl]methyl]-6-methyl-morpholin-4-yl]quinoxaline-5-carbonitrile]
IC20 (hERG channel): > 10 µM | pIC50 (hERG channel): < 4.70 | hERG IC20/TLR7 IC50 (hERG channel): >2500 | hERG IC20/TLR8 IC50 (hERG channel): >10000 | hERG IC20/TLR9 IC50 (hERG channel): >196

inhibition at 10 min, 10 µM (CYP2D6): -8.5%
Compound: C[C@@H]1CN(c2ccc(C#N)c3nccnc23)C[C@H](CN2CCN(c3nccc(N4C[C@@H](N)[C@H](F)C4)n3)CC2)O1 [Example 119, 8-[(2S,6R)-2-[[4-[4-[(3R,4R)-3-amino-4-fluoro-pyrrolidin-1-yl]pyrimidin-2-yl]piperazin-1-yl]methyl]-6-methyl-morpholin-4-yl]quinoxaline-5-carbonitrile]

inhibition at 10 min, 10 µM (CYP2D6): -4%
Compound: [2H]c1ccc2c(N3C[C@H](CN4CCN(c5nc(C)cc(N6C[C@H](OC)[C@@H](N)C6)n5)CC4)O[C@H](C)C3)ccc(C#N)c2n1 [Example 134, 5-[(2S,6R)-2-[[4-[4-[(3S,4S)-3-amino-4-methoxy-pyrrolidin-1-yl]-6-methyl-pyrimidin-2-yl]piperazin-1-yl]methyl]-6-methyl-morpholin-4-yl]-2-deuterio-quinoline-8-carbonitrile]

Compound: [2H]c1ccc2c(N3C[C@H](CN4CCN(c5nc(C)cc(N6C[C@@H](N)[C@H](OC)C6)n5)CC4)O[C@H](C)C3)ccc(C#N)c2n1 [Example 144, 5-[(2S,6R)-2-[[4-[4-[(3R,4R)-3-amino-4-methoxy-pyrrolidin-1-yl]-6-methyl-pyrimidin-2-yl]piperazin-1-yl]methyl]-6-methyl-morpholin-4-yl]-2-deuterio-quinoline-8-carbonitrile]
IC20 (hERG channel): > 10 µM | pIC50 (hERG channel): < 4.70 | hERG IC20/TLR7 IC50 (hERG channel): >909 | hERG IC20/TLR8 IC50 (hERG channel): >10000 | hERG IC20/TLR9 IC50 (hERG channel): >322

inhibition at 10 min, 10 µM (CYP2D6): 12.5%
Compound: [2H]c1ccc2c(N3C[C@H](CN4CCN(c5ccc(N6CC7(CNCCO7)C6)nc5)CC4)O[C@H](C)C3)ccc(C#N)c2n1 [Example 152, 2-deuterio-5-[(2R,6S)-2-methyl-6-[[4-[6-(5-oxa-2,8-diazaspiro[3.5]nonan-2-yl)-3-pyridyl]piperazin-1-yl]methyl]morpholin-4-yl]quinoline-8-carbonitrile]

inhibition at 10 min, 10 µM (CYP2D6): -7.5%
Compound: C[C@@H]1CN(c2ccc(C#N)n3ncc(F)c23)C[C@H](CN2CC(c3ccc(N4CC(C)(N)C4)nc3)C2)O1 [Example 158, 4-[(2S,6R)-2-[[3-[6-(3-amino-3-methyl-azetidin-1-yl)-3-pyridyl]azetidin-1-yl]methyl]-6-methyl-morpholin-4-yl]-3-fluoro-pyrazolo[1,5-a]pyridine-7-carbonitrile]
